Data: PMC11226541 (Cancer Medicine, 2024)
Read-outs that look alike come from different tables or passages of the source. Values belong to the compound of their own block, whether it stands above or below them.

How the values were obtained:
[1] = system: patients with locally advanced and metastatic solid tumors; experiment: Dose-limiting toxicities, MTD and RP2D, dose-escalation stage (modified 3 + 3); type: in vivo, human; settings: QD, with pamiparib 60 mg BID
Source text: AEs were coded using MedDRA v25.0 or higher.

[2] = Pharmacokinetics of TMZ in plasma (combination with pamiparib); type: in vivo; settings: human, po, read-out: mean plasma concentration of TMZ 1 h after oral administration
Protocol: (§1) PK of pamiparib and TMZ were assessed in blood samples collected at various timepoints following administration (pamiparib: ≤30 min before dosing, 1 h ± 15 min, 2 h ± 30 min, and 4 h ± 30 min after pamiparib dose on cycle 1 Day 1 and cycle 1 Day 15; TMZ: on cycle 1 Day 1 and Day 7 at ≤30 min before dosing and 1 h ± 15 min after TMZ dose). Parameters for pamiparib included the maximum observed plasma concentration (Cmax), lowest concentration reached before the next administered dose (Ctrough), half‐life (T1/2), and time to reach peak plasma concentration (Tmax). Biomarkers were analyzed in blood samples, processed into serum, plasma, and cell fractions for the analysis of germline mutations and circulating markers. Available archival or fresh tumor tissue samples were analyzed at a central laboratory. Tumor tissue was sent either as a formalin‐fixed, paraffin‐embedded block with tumor tissue (preferred) or as approximately 10 unstained slides.

recurrent glioblastoma = system: recurrent glioblastoma; design: method as in PMID 32347934; settings: combination with TMZ; cited from earlier work
[3] = Pharmacokinetics of pamiparib in plasma (combination with TMZ); type: in vivo, human; settings: for concentration at 2 h: read-out: geometric mean pamiparib concentration at 2 h post dose
Protocol: as §1

[4] = system: advanced or metastatic solid tumors; settings: cited from earlier work
[5] = system: BRCA1/2-mutated ovarian cancer; design: method as in PMID 34844979; settings: monotherapy, cited from earlier work
[6] = system: triple-negative breast cancer with germline BRCA1/2 mutations; design: method as in PMID 36459284; settings: monotherapy, TNBC patients with germline BRCA1/2 mutations; cited from earlier work
[7] = design: method as in PMID 32652442; settings: cited from earlier work
advanced malignancies = system: advanced malignancies; design: method as in PMID 36136304; settings: combination with TMZ, related AEs; cited from earlier work

Structure (SMILES): Cn1nnc2c(C(N)=O)ncn2c1=O [TMZ, Temozolomide]
RP2D of TMZ ([1]; 7-day pulsed): 60 mg | maximum tolerated dose of TMZ ([1]; 7-day pulsed): 60 mg | maximum tolerated dose of TMZ ([1]; continuous): 20 mg | concentration at 1 h ([2]; cycle 1 Day 1, 20-mg dose): 338 ng/mL | concentration at 1 h ([2]; cycle 1 Day 1, 120-mg dose): 1510 ng/mL

Structure (SMILES): O=C(c1cc(Cc2n[nH]c(=O)c3ccccc23)ccc1F)N1CCN(C(=O)C2CC2)CC1 [olaparib]
Grade 3/4 neutropenia (recurrent glioblastoma): 13% | Grade 3/4 thrombocytopenia (recurrent glioblastoma): 25%

geometric mean AUC0-4 at steady state relative to single-dose pamiparib administration ([3]; combination with TMZ): approximately twice | concentration at 2 h ([3]; human, plasma, oral, cycle 1 Day 1, combination with TMZ): 1580 ng/mL | concentration at 2 h ([3]; human, plasma, oral, cycle 1 Day 15, combination with TMZ): 3480 ng/mL | AUC(0-t) ([3]; human, plasma, oral, steady state with combination TMZ therapy (cycle 1 Day 15), pamiparib 60 mg BID, read-out: pamiparib geometric mean AUC0-4): 11100 ng·h/mL | Cmax ([3]; oral, pamiparib 60 mg BID with TMZ, human plasma, n/N 20/20, read-out: Cmax – mean (SD)): 2010 ng/mL | Tmax ([3]; oral, pamiparib 60 mg BID with TMZ, human plasma, n/N 20/20, read-out: Tmax – mean (SD)): 4 h | AUC0-4, SS – geometric mean ([3]; pamiparib 60 mg BID with TMZ, steady state, cycle 1, day 15, human plasma, n/N 8/20): 11,119 h*ng/mL | Ctrough, SS – mean (SD) ([3]; pamiparib 60 mg BID with TMZ, steady state, cycle 1, day 15, human plasma, n/N 14/20): 2,934 (2346) ng/mL
Structure (SMILES): C[C@]12CCCN1CC1=NNC(=O)c3cc(F)cc4[nH]c2c1c34 [pamiparib, Pamiparib]
RP2D of pamiparib ([4]; administered orally, BID): 60 mg | ORR ([4]; monotherapy, advanced or metastatic solid tumors): 27.3% | ORR ([5]; BRCA1/2-mutated platinum-resistant ovarian cancer): 31.6% | ORR ([5]; BRCA1/2-mutated platinum-sensitive ovarian cancer): 64.6% | ORR [6]: 38.2% | brain penetration ([7]; mice and rats): strong brain penetration | drug exposure in the brain ([7]; mice): higher drug exposure in the brain compared with other PARP inhibitors

Structure (SMILES): Cn1ncnc1[C@H]1c2n[nH]c(=O)c3cc(F)cc(c23)N[C@@H]1c1ccc(F)cc1 [talazoparib]
Grade 3/4 neutropenia (advanced malignancies): 28% | Grade 3/4 thrombocytopenia (advanced malignancies): 33%
